From paper PMC1310925, “Organotins Disrupt the 11β-Hydroxysteroid Dehydrogenase Type 2–Dependent Local Inactivation of Glucocorticoids” (Environmental Health Perspectives, 2005)

What was measured:
11β-HSD2 [1] = target: T1, 11β-HSD2 (Homo sapiens, UniProt P80365); experiment: 11β-HSD2 activity in lysates of stably transfected HEK-293 cells (cortisol to cortisone); format: biochemical; design: expressed in transfected cells; host or cells: HEK-293, stably transfected; settings: for Vmax of 11β-HSD2 in presence of inhibitor: control 2.14 ± 0.32
T1 sequence (P80365 1-405): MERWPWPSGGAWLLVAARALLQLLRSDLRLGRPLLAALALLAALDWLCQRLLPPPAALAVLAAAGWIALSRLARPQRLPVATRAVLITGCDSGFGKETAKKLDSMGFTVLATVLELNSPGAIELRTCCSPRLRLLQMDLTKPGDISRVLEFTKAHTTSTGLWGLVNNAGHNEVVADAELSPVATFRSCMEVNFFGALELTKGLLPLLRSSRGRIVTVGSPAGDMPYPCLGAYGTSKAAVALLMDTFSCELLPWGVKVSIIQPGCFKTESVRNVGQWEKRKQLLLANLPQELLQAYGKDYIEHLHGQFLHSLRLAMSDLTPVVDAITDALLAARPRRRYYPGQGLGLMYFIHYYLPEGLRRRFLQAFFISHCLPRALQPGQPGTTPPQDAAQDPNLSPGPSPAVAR
Procedure: Cells were rinsed 3 times with phosphate-buffered saline (PBS) and resuspended in 2 mL ice-cold buffer TS2 (100 mM NaCl, 1 mM EGTA, 1 mM EDTA, 1 mM MgCl2, 250 mM sucrose, 20 mM Tris-HCl, pH 7.4). Aliquots of the cell suspension were frozen at −20°C, retaining full enzymatic activity for at least 3 months. For determinationof 11β-HSD2 activity, aliquots were thawed, sonicated, and diluted 1:12 in buffer TS2 (4°C). We carried out reactions in a final volume of 20 μL containing 10 nCi [1,2,6,7-^3H]-cortisol, 400-μM NAD^+, and different concentrations of unlabeled cortisol. […] Incubations were for 10 min at 37°C.

11β-HSD2 [2] = target: T1, 11β-HSD2; experiment: 11β-HSD2 activity in intact stably transfected HEK-293 cells; format: cell-based; design: expressed in transfected cells; host or cells: HEK-293, stably transfected; settings: for IC50: HEK-293 stably transfected, 40 nM cortisol, 2 hr; for 11β-HSD2 activity in intact cells, compound alone: concentrations 50% below their IC50 value
11β-HSD1 = target: T2, 11β-HSD1 (Homo sapiens, UniProt P28845); experiment: 11β-HSD1 oxoreductase activity in cell lysates (cortisone to cortisol); format: biochemical; settings: for inhibition of 11β-HSD1-dependent conversion of cortisone to cortisol: concentrations up to 200 μM, lysate; for IC50: lysates of transfected HEK-293 cells, cortisone as substrate, read-out: IC50 11β-HSD1, cell lysate
T2 construct: expressed in transfected cells; host or cells: HEK-293, calcium-phosphate transfection, lysate
T2 sequence (P28845 whole entry): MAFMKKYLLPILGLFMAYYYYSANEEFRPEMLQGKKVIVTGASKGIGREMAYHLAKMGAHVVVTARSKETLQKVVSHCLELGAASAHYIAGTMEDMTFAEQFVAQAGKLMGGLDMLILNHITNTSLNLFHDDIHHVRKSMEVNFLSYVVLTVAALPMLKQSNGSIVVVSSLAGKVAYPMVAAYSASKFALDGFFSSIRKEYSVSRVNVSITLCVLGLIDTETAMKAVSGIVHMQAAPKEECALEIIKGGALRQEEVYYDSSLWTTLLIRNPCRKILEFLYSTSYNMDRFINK
Procedure: (§1) For determination of 11β-HSD1, 17β-HSD1, and 17β-HSD2 activity, HEK-293 cells transfected by the calcium-phosphate precipitation method were harvested 48 hr later, washed with PBS, and centrifuged for 3 min at 150 × g. Supernatants were removed, cell pellets quick-frozen in a dry ice ethanol bath, and stored at −70°C. For assaying 11β-HSD1, we dissolved pellets in TS2 buffer; for 17β-HSD1 or 17β-HSD2, we used a buffer containing 50 mM potassium phosphate, 20% glycerol, and 1 mM EDTA. We measured 11β-HSD1 oxoreductase activity as described recently ([Atanasov et al. 2004]), using radiolabeled cortisone as substrate. 17β-HSD1 and 17β-HSD2 activities were measured in the presence of radiolabeled estrone or estradiol and unlabeled steroid at final concentrations of 200 nM and 500 μM NADPH or NAD^+, respectively.

17β-HSD2 = target: T3, 17β-HSD2 (Homo sapiens, UniProt P37059); experiment: 17β-HSD2 activity in cell lysates (estradiol to estrone); format: biochemical; settings: for IC50: lysates of transfected HEK-293 cells, 200 nM estradiol, NAD+, read-out: IC50 17β-HSD2, cell lysate
T3 construct: expressed in transfected cells; host or cells: HEK-293, calcium-phosphate transfection, lysate
T3 sequence (P37059 1-387): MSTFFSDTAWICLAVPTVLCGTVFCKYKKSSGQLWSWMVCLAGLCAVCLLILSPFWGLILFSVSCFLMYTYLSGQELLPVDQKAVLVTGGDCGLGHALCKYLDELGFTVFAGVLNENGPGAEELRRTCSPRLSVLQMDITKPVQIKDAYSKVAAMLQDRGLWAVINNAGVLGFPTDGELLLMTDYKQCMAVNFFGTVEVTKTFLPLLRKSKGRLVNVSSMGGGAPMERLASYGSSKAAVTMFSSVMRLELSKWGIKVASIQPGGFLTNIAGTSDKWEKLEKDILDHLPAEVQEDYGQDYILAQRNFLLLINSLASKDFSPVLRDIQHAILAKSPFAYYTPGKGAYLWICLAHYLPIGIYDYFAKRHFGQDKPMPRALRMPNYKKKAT
Procedure: as §1

[3] = ref McVey and Cooke 2003; cited from earlier work
11β-HSD2 [4] = target: 11β-HSD2 (Rattus norvegicus, UniProt P50233)
Sequence of 11β-HSD2 (Rattus norvegicus, UniProt P50233) (P50233 whole entry): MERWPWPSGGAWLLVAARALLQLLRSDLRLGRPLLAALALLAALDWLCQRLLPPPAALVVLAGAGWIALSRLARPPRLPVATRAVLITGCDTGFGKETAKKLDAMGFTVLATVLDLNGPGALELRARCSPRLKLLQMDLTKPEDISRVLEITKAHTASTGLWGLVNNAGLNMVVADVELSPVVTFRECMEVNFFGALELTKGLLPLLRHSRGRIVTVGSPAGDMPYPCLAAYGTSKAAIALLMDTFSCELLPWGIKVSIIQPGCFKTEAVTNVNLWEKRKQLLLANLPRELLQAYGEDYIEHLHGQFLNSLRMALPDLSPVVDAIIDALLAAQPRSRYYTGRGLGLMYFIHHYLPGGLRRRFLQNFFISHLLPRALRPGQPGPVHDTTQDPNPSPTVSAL
Procedure: (§2) SW-620 (human colorectal adenocarcinoma) cells and JEG-3 (human choriocarcinoma) cells were cultured according to the recommendations of the supplier (American Type Culture Collection, Manassas, VA, USA).
(§3) HEK-293 cells stably transfected with 11β-HSD2 (25,000 cells per well) were seeded 24 hr prior to the assay in poly-D-lysine coated 96-well Biocoat plates (Becton Dickinson, Basel, Switzerland). The medium was carefully removed, followed by the addition of 30 μL fresh medium, 10 μL medium containing various concentrations of organotins, and 10 μL radiolabeled cortisol. The reaction volume was 50 μL, with a final cortisol concentration of 40 nM. The cells were incubated for 2 hr at 37°C under 5% CO2. We stopped reactions by adding an excess of unlabeled cortisone and cortisol in methanol, and separated steroids using thin-layer chromatography, followed by scintillation counting. 11β-HSD2 activity in JEG-3, SW-620, and RCCD-2 cells was measured similarly by adjusting the cell density and reaction time to obtain a maximal conversion of cortisol between 15 and 25%.

11β-HSD2 [5] = target: T1, 11β-HSD2; settings: endogenous enzyme, intact cells
Procedure: as §2, §3

11β-HSD2 Cys^48Ser = 11β-HSD2 Cys^48Ser (Homo sapiens, UniProt P80365, C48S); settings: read-out: TBT IC50 ± SD, Cys^48Ser; mutant Cys^48Ser, lysate
Sequence of 11β-HSD2 Cys^48Ser (P80365 whole entry C48S): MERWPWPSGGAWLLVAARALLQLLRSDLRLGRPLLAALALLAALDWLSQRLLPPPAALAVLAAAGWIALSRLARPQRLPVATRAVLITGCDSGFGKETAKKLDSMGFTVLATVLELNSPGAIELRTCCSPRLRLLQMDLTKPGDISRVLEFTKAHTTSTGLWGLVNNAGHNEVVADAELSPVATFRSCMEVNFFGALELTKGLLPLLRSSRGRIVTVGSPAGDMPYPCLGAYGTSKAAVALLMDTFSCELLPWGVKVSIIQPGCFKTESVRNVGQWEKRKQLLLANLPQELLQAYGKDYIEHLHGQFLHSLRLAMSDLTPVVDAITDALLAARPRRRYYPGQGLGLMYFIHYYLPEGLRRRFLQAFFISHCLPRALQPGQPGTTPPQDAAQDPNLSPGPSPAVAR
Procedure: (§4) Cells were rinsed 3 times with phosphate-buffered saline (PBS) and resuspended in 2 mL ice-cold buffer TS2 (100 mM NaCl, 1 mM EGTA, 1 mM EDTA, 1 mM MgCl2, 250 mM sucrose, 20 mM Tris-HCl, pH 7.4). […] For determinationof 11β-HSD2 activity, aliquots were thawed, sonicated, and diluted 1:12 in buffer TS2 (4°C). We carried out reactions in a final volume of 20 μL containing 10 nCi [1,2,6,7-^3H]-cortisol, 400-μM NAD^+, and different concentrations of unlabeled cortisol. […] Incubations were for 10 min at 37°C.
(§5) All constructs were verified by sequencing and recloned into pcDNA3 expression vector. Wild-type and mutant enzymes were expressed in HEK-293 cells, lysates were prepared, and proteins were separated by sodium dodecyl sulfate (SDS) gel electrophoresis. Proteins were transferred to nitrocellulose, and expression levels of 11β-HSD2 constructs were detected using mouse monoclonal antibody M2 raised against the FLAG epitope and visualized with a horseradish peroxidase conjugated anti-mouse antibody and enhanced chemiluminescence Western kit (Pierce, Rockford, IL, USA). After detection of 11β-HSD2 constructs, nitrocellulose membranes were stripped and incubated with rabbit polyclonal anti-actin IgG (Santa Cruz Biotechnology Inc., Santa Cruz, CA, USA) and horseradish peroxidase–conjugated goat anti-rabbit IgG to adjust for the amount of proteins loaded on the gel. The expression of mutant relative to wild-type enzyme was adjusted for calculation of kinetic parameters.

11β-HSD2 Cys^264Ser = 11β-HSD2 Cys^264Ser (Homo sapiens, UniProt P80365, C264S); settings: lysate
Sequence of 11β-HSD2 Cys^264Ser (P80365 whole entry C264S): as the sequence (P80365 whole entry C48S) above, with S48C, C264S counted along it
Procedure: as §4, §5

11β-HSD2 Cys^248Ser = 11β-HSD2 Cys^248Ser (Homo sapiens, UniProt P80365, C248S); settings: read-out: TBT IC50 ± SD, Cys^248Ser; mutant Cys^248Ser, lysate
Sequence of 11β-HSD2 Cys^248Ser (P80365 whole entry C248S): as the sequence (P80365 whole entry C48S) above, with S48C, C248S counted along it
Procedure: as §4, §5

11β-HSD2 Cys^371Ser = 11β-HSD2 Cys^371Ser (Homo sapiens, UniProt P80365, C371S); settings: read-out: TBT IC50 ± SD, Cys^371Ser; mutant Cys^371Ser, lysate
Sequence of 11β-HSD2 Cys^371Ser (P80365 whole entry C371S): as the sequence (P80365 whole entry C48S) above, with S48C, C371S counted along it
Procedure: as §4, §5

11β-HSD2 Cys^128Ser = 11β-HSD2 Cys^128Ser (Homo sapiens, UniProt P80365, C128S); settings: read-out: TBT IC50 ± SD, Cys^128Ser; mutant Cys^128Ser, lysate
Sequence of 11β-HSD2 Cys^128Ser (P80365 whole entry C128S): as the sequence (P80365 whole entry C48S) above, with S48C, C128S counted along it
Procedure: as §4, §5

11β-HSD2 Cys^188Ser = 11β-HSD2 Cys^188Ser (Homo sapiens, UniProt P80365, C188S); settings: read-out: TBT IC50 ± SD, Cys^188Ser; mutant Cys^188Ser, lysate
Sequence of 11β-HSD2 Cys^188Ser (P80365 whole entry C188S): as the sequence (P80365 whole entry C48S) above, with S48C, C188S counted along it
Procedure: as §4, §5

11β-HSD2 Cys^127Ser = 11β-HSD2 Cys^127Ser (Homo sapiens, UniProt P80365, C127S); settings: read-out: TBT IC50 ± SD, Cys^127Ser; mutant Cys^127Ser, lysate
Sequence of 11β-HSD2 Cys^127Ser (P80365 whole entry C127S): as the sequence (P80365 whole entry C48S) above, with S48C, C127S counted along it
Procedure: as §4, §5

17β-HSD1 = target: T4, 17β-HSD1 (Homo sapiens, UniProt P14061); experiment: 17β-HSD1 activity in cell lysates (estrone to estradiol); format: biochemical; settings: for inhibition of 17β-HSD1: lysate; for IC50: lysates of transfected HEK-293 cells, 200 nM estrone, NADPH, read-out: IC50 17β-HSD1, cell lysate
T4 construct: expressed in transfected cells; host or cells: HEK-293, calcium-phosphate transfection, lysate
T4 sequence (P14061 1-328): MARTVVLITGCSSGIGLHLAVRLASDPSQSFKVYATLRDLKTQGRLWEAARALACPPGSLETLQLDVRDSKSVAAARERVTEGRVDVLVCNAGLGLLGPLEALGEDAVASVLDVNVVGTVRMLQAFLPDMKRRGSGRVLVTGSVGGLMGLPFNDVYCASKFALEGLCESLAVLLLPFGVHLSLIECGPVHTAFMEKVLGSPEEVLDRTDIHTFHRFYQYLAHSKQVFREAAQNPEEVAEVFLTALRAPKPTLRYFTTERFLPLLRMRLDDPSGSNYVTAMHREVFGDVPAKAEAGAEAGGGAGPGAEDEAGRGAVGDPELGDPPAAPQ
Procedure: as §1

[6] = 40 nM cortisol, 400 μM NAD+, 10 min 37°C, read-out: IC50 11β-HSD2, cell lysate

c1cc[c]([Sn][c]2ccccc2)cc1 [DPT, diphenyltin]
IC50 (11β-HSD2 [1]; [6]): 1.42 ± 0.17 µM
IC50 (11β-HSD2 [2]): 2.89 ± 0.59 µM
11β-HSD2 activity in intact cells, compound alone (11β-HSD2 [2]): reduced 11β-HSD2 activity only slightly

O[C@@H](CS)[C@@H](O)CS (racemic) [DTT, dithiothreitol, reference compound]
effect on 11β-HSD2 enzymatic activity (11β-HSD2 [1]; DTT alone, lysate): did not significantly alter enzymatic activity

CCC[CH2][Sn][CH2]CCC [DBT, dibutyltin]
IC50 (11β-HSD2 [1]; [6]): 1.95 ± 0.27 µM
IC50 (11β-HSD2 [2]): 5.03 ± 0.7 µM
11β-HSD2 activity in intact cells, compound alone (11β-HSD2 [2]): reduced 11β-HSD2 activity only slightly

CCC[CH2][Sn]([CH2]CCC)[CH2]CCC [TBT, tributyltin]
inhibition of 11β-HSD1-dependent conversion of cortisone to cortisol (11β-HSD1): did not inhibit
IC50 (11β-HSD1): > 200 µM
IC50 (17β-HSD2): > 200 µM
toxic daily intake [3]: 0.25 μg/kg body weight
stronger inhibition in RCCD-2 cells than in HEK-293 cells (11β-HSD2 [4]; intact cells): approximately 2 fold
IC50 (11β-HSD2 [4]; read-out: IC50 11β-HSD2 in intact RCCD-2 cells, endogenous enzyme, rat renal cortical collecting duct cells): 0.83 ± 0.23 µM
inhibition of 11β-HSD2 in SW-620 cells compared with HEK-293 cells (11β-HSD2 [5]; colon-derived): highly similar to that observed in HEK-293 cells
inhibition of 11β-HSD2 in JEG-3 cells compared with HEK-293 cells (11β-HSD2 [5]; placenta-derived): highly similar to that observed in HEK-293 cells
IC50 (11β-HSD2 [1]; [6]): 1.9 ± 0.66 µM
increase of apparent Km (11β-HSD2 [1]; 2 μM TBT versus control): 2 fold
change of inhibitory effect upon preincubation (11β-HSD2 [1]; 2 μM TBT, preincubation 5 or 10 min, lysate): the changes did not reach significance
Vmax of 11β-HSD2 in presence of inhibitor (11β-HSD2 [1]; 2 μM TBT): 1.66 ± 0.40 nmol/h/mg
increase of apparent Km (11β-HSD2 [1]; 3 μM TBT versus control): 3 fold
Vmax of 11β-HSD2 in presence of inhibitor (11β-HSD2 [1]; 3 μM TBT): 1.48 ± 0.48 nmol/h/mg
effect of dilution of enzyme-inhibitor complex on relative inhibition (11β-HSD2 [1]; 2-fold and 4-fold dilution of the EI complex): proportional decrease of the relative inhibitory effect
IC50 (11β-HSD2 [1]; Table 2, wild-type enzyme, lysate, read-out: TBT IC50 ± SD, wild-type 11β-HSD2): 1.9 ± 0.46 µM
mode of inhibition of 11β-HSD2 (11β-HSD2 [1]; from change of Km and Vmax with TBT): mixed-competitive mode of inhibition
IC50 (11β-HSD2 Cys^48Ser): 2.11 ± 0.33 µM
increase in IC50 with Cys^264Ser versus wild-type (11β-HSD2 Cys^264Ser): 2 fold
IC50 (11β-HSD2 Cys^264Ser; read-out: TBT IC50 ± SD, Cys^264Ser, mutant Cys^264Ser): 4.2 ± 0.44 µM
IC50 (11β-HSD2 Cys^248Ser): 2.07 ± 0.47 µM
IC50 (11β-HSD2 Cys^371Ser): 2.17 ± 0.5 µM
IC50 (11β-HSD2 Cys^128Ser): 1.87 ± 0.53 µM
IC50 (11β-HSD2 Cys^188Ser): 1.95 ± 0.38 µM
IC50 (11β-HSD2 Cys^127Ser): 2.23 ± 0.33 µM
inhibition of 17β-HSD1 (17β-HSD1): neither TBT nor TPT inhibited
IC50 (17β-HSD1): > 200 µM
IC50 (11β-HSD2 [2]): 1.52 ± 0.43 µM
11β-HSD2 activity in intact cells, compound alone (11β-HSD2 [2]): reduced 11β-HSD2 activity only slightly

N[C@@H](CCC(=O)N[C@@H](CS)C(=O)NCC(=O)O)C(=O)O [glutathione, reference compound]
prevention of organotin-dependent inhibition of 11β-HSD2 (11β-HSD2 [1]; not shown): not able to prevent

c1cc[c]([Sn]([c]2ccccc2)[c]2ccccc2)cc1 [TPT, triphenyltin]
inhibition of 11β-HSD1-dependent conversion of cortisone to cortisol (11β-HSD1): did not inhibit
IC50 (11β-HSD1): > 200 µM
IC50 for 17β-HSD2 relative to IC50 for 11β-HSD2 (17β-HSD2; lysates): 6 fold
IC50 (17β-HSD2): 19 ± 3 µM
IC50 (11β-HSD2 [1]; [6]): 3.19 ± 0.73 µM
inhibition of 17β-HSD1 (17β-HSD1): neither TBT nor TPT inhibited
IC50 (17β-HSD1): > 200 µM
IC50 (11β-HSD2 [2]): 0.99 ± 0.24 µM
11β-HSD2 activity in intact cells, compound alone (11β-HSD2 [2]): reduced 11β-HSD2 activity only slightly
